In patent EP4139472B1, “A METHOD FOR BIOTESTING OF A CONDENSED PHASE SUBSTANCES AND/OR MIXTURES ECOTOXICITY AND USE OF THE METHOD IN ECOTOXYCOLOGY” (Uniwersytet Jana Dlugosza w Czestochowie, priority 2020, dated 2021):
Several values for one entry are separate records, joined by “and”; a condition that tells them apart may be missing. Equal entries are not always repeated. Where two headings read alike, the source gives them in different places.

System: A. fischeri bacteria
Assay: Bioluminescence inhibition of A. fischeri, modified Microtox Basic Solid Phase Test (synthetic sample with inert auxiliary substance)
Format: cell-based, Aliivibrio fischeri
Conditions: for EC50: Aliivibrio fischeri
Excerpt: According to the invention, instead of a homogeneous solid sample with a relatively large mass (7 g in the Microtox® Basic Solid Phase Test), which is often unreachable for laboratory measurements of expensive or innovative materials, a so-called synthetic sample (as opposed to natural samples, i.e. soils and bottom sediments) of the same mass, containing the tested substance and an inert auxiliary substance (so called solid matrix) is being created. As a result, the synthetic sample simulates the soil contaminated with the tested substance. The synthetic sample prepared in such a way can be dispersed in the diluent and processed further according to the Microtox® Basic Solid Phase Test protocol. The Microtox® Basic Solid Phase Test protocol provides a series of steps covering, in turn: • suspending 7 g of the test sample in 35 ml of diluent in a 50 ml beaker, mixing for 10 min; • taking 2 mL of the suspension described above, while stirring it, into an appropriate cuvette; • performing a series of 1:2 dilutions of the test sample using the diluent; • reconstitution of freeze-dried Aliivibrio fischeri bacteria; • preparation and 15 min incubation of the reagent (10 µL of reconstituted bacteria and 0.5 mL of diluent); • bioluminescence measurement for time zero (bioluminescence before contact with the sample); • adding the reagent to each test sample and to the control cuvette; • incubation for 5 min, measurement of bioluminescence after 5 min incubation of bacteria with the sample; • incubation for another 10 min, measurement of bioluminescence after 15 min incubation of bacteria with the sample. The Microtox® protocol provides for the use of a 30-well incubator block maintaining a temperature of 15° C in the wells of the sample cuvettes and 5.5° C in the well of the bacterial suspension. According to the invention, a sample containing the substance to be test and an auxiliary substance is subjected to the procedure provided for in the Microtox® Basic Solid Phase Test. The pre-suspension is made by mixing the synthetic sample with a diluent (Microtox® Solid Phase Diluent: 3.5% aqueous NaCl solution) in appropriate proportions provided for in the measurement protocol, for example 7 g of the sample is mixed with 35 mL of diluent (weight/volume ratio of the sample to diluent is 1:5 g/mL), but after validation it is possible to use dispersions of any proportion (preferably from 1:4 g/mL to 1:6 g/mL) and scale (preferably samples weighing 3-10 g depending on capacity of the equipment used). In the case of hydrophobic chemicals, it is allowed to suspend them in a mixture of methanol with a diluent (e.g. 4% methanol solution) to increase their solubility. Then, the suspension is stirred in a tall beaker on a stirrer so that, as a result of mixing, the vortex always has the same, repeatable height, equal to half the height of the liquid level. A representative sample for further dilutions is drawn with an automatic pipette while the suspension is stirred, from half the depth of the suspension according to the Microtox® protocol. The further steps in the measurement (including but not limited to dilution, sampling, luminescence measurement, etc.) also follow the Microtox® Basic Solid Phase Test Procedure. […] A representative sample for further dilutions was taken from half the depth of the suspension without stirring interruption according to the Microtox® Basic Solid Phase Test protocol. […] The measurements were carried out in triplicate and the EC50 values were determined after 5 and 15 minutes of exposure. The obtained results with 95% confidence intervals, as well as the correlation coefficients are summarized below, in Table 2. Table 2. EC50 values [mg/L] obtained after 5 and 15 minutes exposure of A. fischeri bacteria to pure valsartan along with the corresponding confidence intervals.

| Structure (SMILES) | EC50 5 min (5 min exposure, 0.160 g pure valsartan + 6.840 g quartz sand in 35 mL diluent, single replicate, 95% confidence interval in brackets) | EC50 15 min (15 min exposure, 0.160 g pure valsartan + 6.840 g quartz sand in 35 mL diluent, single replicate, 95% confidence interval in brackets) | EC50 (5 min, 5 min exposure, 0.160 g pure valsartan + 6.840 g quartz sand in 35 mL diluent, single replicate, 95% confidence interval in brackets, read-out: EC50 5 min) | EC50 (5 min, 5 min exposure, pure valsartan + quartz sand, mean of three replicates, read-out: EC50 5 min, Mean) | EC50 (0.25 h, 15 min exposure, pure valsartan + quartz sand, mean of three replicates, read-out: EC50 15 min, Mean) | EC50 5 min (5 min exposure, 0.200 g losartan potassium + 5.600 g quartz sand in 35 mL diluent (1:[…]), single replicate, 95% confidence interval in brackets) | EC50 15 min (15 min exposure, 0.200 g losartan potassium + 5.600 g quartz sand in 35 mL diluent (1:[…]), single replicate, 95% confidence interval in brackets) | EC50 (5 min, 5 min exposure, 0.200 g losartan potassium + 5.600 g quartz sand in 35 mL diluent (1:[…]), single replicate, 95% confidence interval in brackets, read-out: EC50 5 min) | EC50 (5 min, 5 min exposure, pure losartan potassium + quartz sand, mean of three replicates, read-out: EC50 5 min, Mean) | EC50 (0.25 h, 15 min exposure, 0.200 g losartan potassium + 5.600 g quartz sand in 35 mL diluent (1:[…]), single replicate, 95% confidence interval in brackets, read-out: EC50 15 min) | EC50 (0.25 h, 15 min exposure, pure losartan potassium + quartz sand, mean of three replicates, read-out: EC50 15 min, Mean) |
| --- | --- | --- | --- | --- | --- | --- | --- | --- | --- | --- | --- |
| CCCCC(=O)N(Cc1ccc(-c2ccccc2-c2nnn[nH]2)cc1)[C@H](C(=O)O)C(C)C [valsartan] | 172.06 (102.02-290.17) mg/L and 88.31 (83.90-92.91) mg/L | 341.70 (338.33-358.97) mg/L and 242.80 (103.75-568.26) mg/L and 120.04 (99.20-145.28) mg/L | 169 µg/mL | 143 ± 38.8 µg/mL | 235 ± 90.7 µg/mL | – | – | – | – | – | – |
| CCCCc1nc(Cl)c(CO)n1Cc1ccc(-c2ccccc2-c2nn[nH]n2)cc1 [losartan potassium] | – | – | – | – | – | 594.25 (343.09-1028.98) mg/L and 667.23 (490.17-908.21) mg/L | 694.10 (541.64-889.82) mg/L and 629.33 (172.93-2289.90) mg/L | 490 µg/mL | 584 ± 72.7 µg/mL | 654 µg/mL | 659 ± 26.7 µg/mL |
